A word on the IC50: it is the concentration at which inhibition is half-maximal. A higher IC50 goes with a need for much substance.

Test [1] addresses T1, β-amyloid—RAGE interaction (Homo sapiens, UniProt Q15109).
T1 construct: generate soluble RAGE (sRAGE) comprised of the V and C domains
Description: ELISA assay, β-amyloid binding to sRAGE. As to conditions: plate-bound β-amyloid. As to the method: (§1) S100b, β-amyloid and CML (500 ng/100 μL/well) in 100 mM sodium bicarbonate/sodium carbonate buffer (pH 9.8) is loaded onto the wells of a NUNC Maxisorp flat bottom 96—well microtitre plate. The plate is incubated at 4° C. overnight. The wells are aspirated and treated with 50 mM imidazole buffer saline (pH 7.2) (with 1 mM CaCl2/MgCl2) containing 1% bovine serum albumin (BSA) (300 μL/well) for two h at 37° C.
(§2) Test compounds are dissolved in nanopure water (concentration: 10-100 μM). DMSO may be used as co-solvent. 25 μL of test compound solution in 2% DMSO is added, along with 75 μL sRAGE (4.0×10^−4 mg/mL FAC) to each well and samples are incubated for 1 h at 37° C. The wells are washed 3 times with 155 mM NaCl pH 7.2 buffer saline and are soaked 10 seconds between each wash. Non-radioactive binding is performed by adding:
(§3) 10 μL Biotinylated goat F(ab′)2 Anti-mouse IgG. (8.0×10^−4 mg/mL, FAC)
(§4) 10 μL Alk-phos-Sterptavidin (3×10^−3 mg/mL FAC)
(§5) 10 μL Polyclonal antibody for sRAGE (FAC 6.0×10^−3 mg/mL) to 5 mL 50 mM imidazole buffer saline (pH 7.2) containing 0.2% bovine serum albumin and 1 mM CaCl2. The mixture is incubated for 30 minutes at 37° C. 100 μL complex is added to each well and incubation is allowed to proceed at rt for 1 h. Wells are washed 3 times with wash buffer and soaked 10 s between each wash. 100 μL 1 mg/mL (pNPP) in 1 M diethanolamine (pH adjusted to 9.8 with HCl) is added. […] The reaction is quenched with 10 μL of stop solution (0.5 N NaOH in 50% ethanol) and the absorbance is measured spectrophotometrically with a microplate reader at 405 nm.
(In general: In an ELISA, binding on a coated surface is turned into a signal by an enzyme label.)

Test [2] addresses T2, Carboxymethyl Lysine (CML)/RAGE interaction (Homo sapiens, UniProt Q15109).
T2 construct: generate soluble RAGE (sRAGE) comprised of the V and C domains
Description: ELISA assay, CML binding to sRAGE. The note with it: plate-bound CML. Here is the method: as §1, §2, §3, §4, §5

Another test addresses T3, S-100b/RAGE interaction (Homo sapiens, UniProt Q15109).
T3 construct: generate soluble RAGE (sRAGE) comprised of the V and C domains
As to the kind of experiment: ELISA assay, S-100b binding to sRAGE. The note with it: plate-bound S100b, concentration at which 50% signal is inhibited. Here is the method: as §1, §2, §3, §4, §5

The test system of test [3] is S-100b/RAGE interaction in Glioma cells. As to the kind of experiment: Functional assay: inhibition of NF-κB in Glioma cells (S-100b/RAGE interaction). Format: cell-based. As to conditions: Glioma cell.

Where a name gives a salt, the structure may show the parent alone.

T1 sequence (Q15109 23-342 limits assumed): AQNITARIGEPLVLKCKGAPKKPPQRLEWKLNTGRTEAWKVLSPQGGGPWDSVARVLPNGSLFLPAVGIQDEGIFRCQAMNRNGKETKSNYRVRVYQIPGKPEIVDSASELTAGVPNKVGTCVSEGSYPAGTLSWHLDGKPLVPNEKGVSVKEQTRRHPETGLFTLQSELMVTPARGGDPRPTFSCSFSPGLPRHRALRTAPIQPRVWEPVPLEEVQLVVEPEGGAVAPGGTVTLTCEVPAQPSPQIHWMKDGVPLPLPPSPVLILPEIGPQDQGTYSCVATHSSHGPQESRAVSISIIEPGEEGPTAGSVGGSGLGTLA
T3 sequence (Q15109 23-342 limits assumed): as above
T2 sequence (Q15109 23-342 limits assumed): as above

On to `CCCCOc1cc(C(=O)OCCN(CC)CC)ccc1NC(=O)[C@@H](Cc1ccc(OCc2ccccc2)cc1)NC(C)C` [Example 13, (R)-3-(4-Benzyloxyphenyl)-2-isopropylaminopropionic Acid 4-Diethylaminoethoxycarbonyl-2-butoxyaniline Amide], for which the IC50 in test [1] came out at 1000 nM; in test [2] it was 700 nM; at S-100b/RAGE interaction, 1000 nM.
For `CCCCOc1cc(C(=O)OCCN(CC)CC)ccc1NC(=O)[C@H](N)Cc1ccc(OCc2ccccc2)cc1` [Example 4, (R)-3-(4-Benzyloxyphenyl)-2-aminopropionic Acid 4-Diethylaminoethoxycarbonyl-2-butoxyaniline Amide Dihydrochloride], the IC50 was 2200 nM in test [1], 1120 nM in test [2] and 820 nM on S-100b/RAGE interaction.
For “(R)-3-(2-Naphthyl)-2-guanidinylpropionic Acid 4-Diethylaminoethoxycarbonyl-2-butoxyaniline Amide Dihydrochloride [Example 12]”, in that order: 5000 nM, 700 nM and 300 to 1000 nM.
In test [3], `CCCCOc1cc(C(=O)OCCN(CC)CC)ccc1NC(=O)[C@H](N)Cc1ccc2ccccc2c1` [Example 1, (R)-3-(2-Naphthyl)-2-aminopropionic Acid 4-Diethylaminoethoxycarbonyl-2-butoxyaniline Amide Dihydrochloride] registered an IC50 of 3300 nM.
In the case of “(R)-3-(4-Benzyloxyphenyl)-2-aminopropionic Acid 4-(3-Diethylamino-1-propoxy)-2-(3-diethylamino-1-propoxyaniline Amide Trihydrochloride [Example 22]”, the results for the IC50 (in test [1]; in test [2]; at S-100b/RAGE interaction) were 1730 nM, 680 nM and 920 nM, respectively.
In the same order, the values of `CCN(CC)CCOc1ccc(NC(=O)[C@@H](Cc2ccc(OCc3ccccc3)cc2)NC(=O)OC(C)(C)C)c(OCCN(CC)CC)c1` [Example 19, (R)-3-(4-Benzyloxyphenyl)-2-tert-butoxycarbonylaminopropionic Acid 4-Diethylaminoethoxy-2-diethylaminoethoxyaniline Amide] are 800 nM, 800 nM and 1140 nM.
Regarding `CCCCOc1cc(C(=O)OCCN(CC)CC)ccc1NC(=O)[C@@H](Cc1ccc(OCc2ccccc2)cc1)NC(=O)NC(C)(C)C` [Example 18, (R)-3-(4-Benzyloxyphenyl)-2-tert-butylcarbamoylaminopropionic Acid 4-Diethylaminoethoxycarbonyl-2-butoxyaniline Amide], the IC50 in test [1] amounted to 2000 nM; in test [2], 840 nM; on S-100b/RAGE interaction, 2300 nM.
Turning to `CCCCOc1cc(C(=O)OCCN(CC)CC)ccc1NC(=O)[C@@H](Cc1ccc(OCc2ccccc2)cc1)NC(=O)OC(C)(C)C` [Example 3, (R)-3-(4-Benzyloxyphenyl)-2-tert-butoxycarbonylaminopropionic Acid 4-Diethylaminoethoxycarbonyl-2-butoxyaniline Amide], the IC50 turned out to be 1500 nM in test [1], 1500 nM in test [2] and 1320 nM at S-100b/RAGE interaction.
On to `CCN(CC)CCCOc1ccc(NC(=O)[C@@H](Cc2ccc(OCc3ccccc3)cc2)NC(=O)OC(C)(C)C)c(OCCCN(CC)CC)c1` [Example 21, (R)-3-(4-Benzyloxyphenyl)-2-tert-butoxycarbonylaminopropionic Acid 4-(3-Diethylamino-1-propoxy)-2-(3-diethylamino-1-propoxy)aniline Amide], for which the IC50 amounted to 1230 nM in test [1], 460 nM in test [2] and 640 nM on S-100b/RAGE interaction.
As for `CCCCOc1cc(C(=O)OC)ccc1NC(=O)[C@H](N)Cc1ccc2ccccc2c1` [Example 2, (R)-3-(2-Naphthyl)-2-aminopropionic Acid 4-Methoxycarbonyl-2-butoxyaniline Amide Hydrochloride], the IC50 in test [2] came out at 3160 nM; on S-100b/RAGE interaction, 5100 nM.
For the molecule `CC(C)(C)OC(=O)N[C@H](Cc1ccc(OCc2ccccc2)cc1)C(=O)Nc1ccc(C(=O)OC(C)(C)C)cc1OC(C)(C)C` [Example 7, (R)-3-(4-Benzyloxyphenyl)-2-tert-butoxycarbonylaminopropionic Acid 4-tert-Butoxycarbonyl-2-tert-butoxyaniline Amide], the IC50 is 8000 nM in test [2] and 1000 to 3000 nM on S-100b/RAGE interaction.
“(R)-3-(4-Benzyloxyphenyl)-2-aminopropionic Acid 4-Diethylaminoethoxy-2-diethylaminoethoxyaniline Amide Trihydrochloride [Example 20]”: the IC50 worked out at 1000 nM in test [1], 1000 nM in test [2] and 840 nM on S-100b/RAGE interaction.
Consider `CCCCOc1cc(C(=O)OCCN(CC)CC)ccc1NC(=O)[C@@H](Cc1ccc2ccccc2c1)NC` [Example 5, (R)-3-(2-Naphthyl)-2-methylaminopropionic Acid 4-Diethylaminoethoxycarbonyl-2-butoxyaniline Amide Dihydrochloride], for which the IC50 in test [1] stood at 1810 nM; in test [2], 1270 nM; on S-100b/RAGE interaction, 2880 nM.
`CCCCOc1cc(C(=O)OCCN(CC)CC)ccc1NC(=O)[C@@H](Cc1ccc(OCc2ccccc2)cc1)NS(C)(=O)=O` [Example 15, (R)-3-(4-Benzyloxyphenyl)-2-methanesulfonylaminopropionic Acid 4-Diethylaminoethoxycarbonyl-2-butoxyaniline Amide] displayed an IC50 on S-100b/RAGE interaction of 10000 to 30000 nM.
